Measured values as given in patent US8691945B2, “Antimicrobial peptides” (Singapore Health Services Pte Ltd., priority 2006, dated 2014).
Where no end group is shown, it is not given here. The star is where a group is joined. Acm = CC(=O)NC*

Assays:
[1] = Molecular hydrophobicity by RP-HPLC-MS retention time, C-terminus analogs; assay type: physicochemical; settings: 1 mg/ml; gradient 2-15.5% in 30 mins then 15.5-31% in 3 mins of eluent B (ACN)
Protocol: The overall molecular hydrophobicity of the C-terminus hBD3 analogs were measured by RP-HPLC-MS in terms of retention time at 1 mg/ml (Table 4 and FIG. 14). RP-HPLC is an approach that is commonly employed for such comparisons of peptides or amino acid side chains among antibacterial peptides. Since the stationary phase of C18-modified silica is hydrophobic and the mobile phase (water-acetonitrile) is hydrophilic, longer retention times should be correlated with higher hydrophobicity. The measured order for the molecular hydrophobicity of the peptides is as follows: W2>F2>L2>I2>Y2>V2>C2>H2.

[2] = Molecular hydrophobicity by HPLC-MS retention time, full-length analogs; assay type: physicochemical; parameters: unit: min; settings: average of three tries, one value per charged fragment
Protocol: Molecular hydrophobicity of peptides was measured by HPLC-MS at the same experimental conditions, e.g., the same peptide concentration (500 or 100 μg/ml), loading (5 μl) and flow rate of 0.2 ml/min in the same gradient 18-38% of eluant A in 32 min and relatively compared in term of retention time (Rt) of product peak.
In comparison with native hBD3, this series of linear analogs of hBD3 with full-length and 11 net positive charge are structurally homogenous as they are designed and synthesized only by uniform replacement of six bridging cysteine residues in hBD3 with other six residues with different hydrophobicity, e.g., A, S, C(Acm), F, Y and W. These linear analogs provide a well-defined model for testing the effect of overall hydrophobicity, second structure and linearity/or constraint imposed by three disulfide bridges on antibacterial, cytotoxicity and hemolytic activities. We have measured the relative molecular hydrophobicity by HPLC-MS in term of retention time (tR) at 500 ug/ml and 100 ug/ml (Table 2) and overall hydrophobicity were calculated based on the hydrophobicity scale of Wilmley and White and Hopp-Woods Scale, respectively. The change trend of overall hydrophobicity, which is calculated based on two different scale, generally fits well, and the HPLC result matches the calculations very well. The general order for the relative molecular hydrophobicity of peptides is as following: W6>F6>Y6>native hBD3>A6>S6>C(Acm)6. […] In the following sections, we will discuss the effect of overall hydrophobicity of peptide on biological activities.

[3] = tested on: E. coli, B. cereus, S. aureus and P. aeruginosa; assay: Antimicrobial assay, statements pooled over the four pathogens; assay type: cell-based; settings: in comparison with hBD3
Protocol: (§1) The bacteria assayed included Escherichia coli ATCC 25922, Staphylococcus aureus ATCC 25923, Pseudomonas aeruginosa ATCC 27853, Bacillus cereus NCTC 2599. Sterile flat-bottom, 96-well tissue culture plates (92096, TPP) was used for assay. The inner surface of microplate cover was treated with 0.05% Triton X-100 in 20% ethanol to prevent condensation of water droplets. Growth kinetics in 96-well microplates was monitored (as turbidity) with the Tecan Genios Plus microplate reader using software Magellan v5.03 and 620-nm filter. Seed culture was monitored on Pharmacia Biotech Ultrospec 2000 UV/Visible spectrophotometer using 600-nm wavelength. Antibacterial activities of the analogs and wild-type hBD3 were determined for E. coli, B. cereus, S. aureus and P. aeruginosa by measuring bacteria growth in liquid broth in the presence of the serially diluted peptides. The LD50 is the concentration of peptide at which 50% of the viable cells are killed.
The bacteria were grown to mid-logarithmic phase in Mueller-Hinton Broth (MHB) from overnight plate culture. […]
LD50, LD90, LD99 and LD99.9 of wild-type hBD3 and its linear analogs were determined against two Gram-negative (E. Coli and P. aeruginosa) and two Gram-positive (B. cereus, S. aureus) (Table 3). […]

[4] = tested on: Bacillus cereus NCTC 2599; assay: Antimicrobial assay, bacteria growth in liquid broth with serially diluted peptides; assay type: cell-based; settings: B cereus, NCTC2599; for vLD50: concentration of peptide at which 50% of the viable cells are killed
Protocol: as §1
(§2) The bacteria were grown to mid-logarithmic phase in Mueller-Hinton Broth (MHB) from overnight plate culture. The cell suspension was diluted to OD 0.1 (600 nm, Pharmacia Biotech Ultropec 2000 UV/Visible spectrophotometer) in mixture of 10 mM Pot Phos buffer/MHB (equal volume (PMH). This cell suspension gave a concentration of 10^7 CFU/ml. Colony count was done for confirmation. A 10-fold dilution series of this suspension ranging from 10^7 to 10^1 CFU/ml was made in PMH (in sextuplicate for Staphylococcus aureus ATCC 25923 and Bacillus cereus NCTC 2599; in quadruplicate for Escherichia coli ATCC 25922 and in triplicate for Pseudomonas aeruginosa ATCC 27853). The final volume per well was 200 ul. For negative control well, 200 ul of uninoculated PMH was added.
(§3) LD50, LD90, LD99 and LD99.9 of wild-type hBD3 and its linear analogs were determined against two Gram-negative (E. Coli and P. aeruginosa) and two Gram-positive (B. cereus, S. aureus) (Table 3). See also FIGS. 7(A, B, C and D).

[5] = tested on: Escherichia coli ATCC 25922; assay: as above; assay type: cell-based; settings: E coli, ATCC25922; for vLD50: concentration of peptide at which 50% of the viable cells are killed
Protocol: as §1, §2, §3

[6] = tested on: Staphylococcus aureus ATCC 25923; assay: as above; assay type: cell-based; settings: Staph aureus, ATCC25923; for vLD50: concentration of peptide at which 50% of the viable cells are killed
Protocol: as §1, §2, §3

[7] = tested on: Pseudomonas aeruginosa ATCC 27853; assay: as above; assay type: cell-based; settings: P aeruginosa, ATCC27853; for vLD50: concentration of peptide at which 50% of the viable cells are killed
Protocol: as §1, §2, §3

| Substance | Overall hydrophobicity in terms of ACN % of peak [1] [%] | Overall hydrophobicity in terms of Retention time (UV peak) [1] [min] | vLD90 [4] [µg/mL] | vLD99 [4] [µg/mL] | vLD99.9 [4] [µg/mL] | vLD50 [4] [µg/mL] | vLD90 [5] [µg/mL] | vLD99 [5] [µg/mL] | vLD99.9 [5] [µg/mL] | vLD50 [5] [µg/mL] | vLD90 [6] [µg/mL] | vLD99 [6] [µg/mL] | vLD99.9 [6] [µg/mL] | vLD50 [6] [µg/mL] | vLD90 [7] [µg/mL] | vLD99 [7] [µg/mL] | vLD99.9 [7] [µg/mL] | vLD50 [7] [µg/mL] | further results |
| --- | --- | --- | --- | --- | --- | --- | --- | --- | --- | --- | --- | --- | --- | --- | --- | --- | --- | --- | --- |
| RGRKFFRRKK (10 aa hBD3 derived peptide (C terminus), C replaced with F) [Peptide F2, 10-residue C-terminus fragment analog of hBD3] | 14.78 | 28.41 | – | – | – | – | – | – | – | – | – | – | – | – | – | – | – | – | – |
| GIINTLQKYYC(Acm)RVRGGRC(Acm)AVLSC(Acm)LPKEEQIGKC(Acm)STRGRKC(Acm)C(Acm)RRKK-OH [C(Acm)6, GIINTLQKYY C(Acm)6RVRGGR C(Acm)6AVLS C(Acm)6LPKEEQIGK C(Acm)6STRGRK C(Acm)6C(Acm)6RRKK] | – | – | 28.3 | 47.8 | 49.8 | 19.6 | 23.8 | 24.9 | 42 | 18.7 | 46.8 | 91 | >100 | 25 | 21.7 | 24.7 | 25 | 11.2 | Relative hydrophobicity in term of retention time (Rt) in HPLC-MS, Average ([2]; 100 ug/ml): 20.94; Relative hydrophobicity in term of retention time (Rt) in HPLC-MS, Average ([2]; 500 ug/ml, fragment m/z 799.3): 20.12; Relative hydrophobicity in term of retention time (Rt) in HPLC-MS, Average ([2]; 500 ug/ml, fragment m/z 932.4): 20.15; Relative hydrophobicity in term of retention time (Rt) in HPLC-MS, Average ([2]; 500 ug/ml, fragment m/z 1118.8): 20.11; antibacterial potency in words [3]: relatively less potency |
| RGRKC(Acm)C(Acm)RRKK [Peptide C2, 10-residue C-terminus fragment analog of hBD3] | 9.67 | 17.05 | – | – | – | – | – | – | – | – | – | – | – | – | – | – | – | – | – |
| RGRKIIRRKK (10 aa hBD3 derived peptide (C terminus), C replaced with I) [Peptide I2, 10-residue C-terminus fragment analog of hBD3] | 11.96 | 22.13 | – | – | – | – | – | – | – | – | – | – | – | – | – | – | – | – | – |
| RGRKHHRRKK (10 aa hBD3 derived peptide (C terminus), C replaced with H) [Peptide H2, 10-residue C-terminus fragment analog of hBD3] | 7.15 | 11.45 | – | – | – | – | – | – | – | – | – | – | – | – | – | – | – | – | – |
| GIINTLQKYYCRVRGGRCAVLSCLPKEEQIGKCSTRGRKCCRRKK (disulfide (positions not given here); also: three disulfide bonds, pairing not given here; listed as Homo sapiens) [whbd3, wild type human β-defensin 3 with three disulfide bonds, used as control, reference compound] | – | – | 5.8 | 6.2 | 6.2 | 3.9 | 11.8 | 12.4 | 12.5 | 9.3 | 10.7 | 12.2 | 12.5 | 5.5 | 5.7 | 11.4 | 12.4 | 2.7 | Relative hydrophobicity in term of retention time (Rt) in HPLC-MS, Average ([2]; 100 ug/ml, listed as Wild-type hBD3, fragment m/z 860.2): 24.28; Relative hydrophobicity in term of retention time (Rt) in HPLC-MS, Average ([2]; 100 ug/ml, listed as Wild-type hBD3, fragment m/z 1032.2): 24.29; Relative hydrophobicity in term of retention time (Rt) in HPLC-MS, Average ([2]; 500 ug/ml, listed as Wild-type hBD3, fragment m/z 860.2): 23.24; Relative hydrophobicity in term of retention time (Rt) in HPLC-MS, Average ([2]; 500 ug/ml, listed as Wild-type hBD3, fragment m/z 1032.2): 23.28 |
